Source: patent US20230089867A1, “CYCLIC PENTAMER COMPOUNDS AS PROPROTEIN CONVERTASE SUBTILISIN/KEXIN TYPE 9 (PCSK9) INHIBITORS FOR THE TREATMENT OF METABOLIC DISORDER” (Novartis AG, priority 2018, published 2023)

Molecular target: human PCSK9 (Homo sapiens, UniProt Q8NBP7)
Assay: PCSK9 ligand binding TR-FRET assay (interference with binding of human PCSK9 to human LDLR)
Conditions: for Max % inhibition: PCSK9 FRET assay, efficacy (Amax), 100% = 1 uM unlabeled human PCSK9, 0% = DMSO; for IC50: TR-FRET, human PCSK9 Alexa Fluor 647 / human LDLR extracellular domain-Europium Kryptate, read-out: PCSK9 FRET Assay IC50
Summary of the method: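 Threefold compound dilutions were pre-incubated 30 min with PCSK9, after which 4 nM Europium Kryptate-tagged human LDLR ectodomain was added for a further 2 h.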

human PCSK9, sequence (Q8NBP7 153-692): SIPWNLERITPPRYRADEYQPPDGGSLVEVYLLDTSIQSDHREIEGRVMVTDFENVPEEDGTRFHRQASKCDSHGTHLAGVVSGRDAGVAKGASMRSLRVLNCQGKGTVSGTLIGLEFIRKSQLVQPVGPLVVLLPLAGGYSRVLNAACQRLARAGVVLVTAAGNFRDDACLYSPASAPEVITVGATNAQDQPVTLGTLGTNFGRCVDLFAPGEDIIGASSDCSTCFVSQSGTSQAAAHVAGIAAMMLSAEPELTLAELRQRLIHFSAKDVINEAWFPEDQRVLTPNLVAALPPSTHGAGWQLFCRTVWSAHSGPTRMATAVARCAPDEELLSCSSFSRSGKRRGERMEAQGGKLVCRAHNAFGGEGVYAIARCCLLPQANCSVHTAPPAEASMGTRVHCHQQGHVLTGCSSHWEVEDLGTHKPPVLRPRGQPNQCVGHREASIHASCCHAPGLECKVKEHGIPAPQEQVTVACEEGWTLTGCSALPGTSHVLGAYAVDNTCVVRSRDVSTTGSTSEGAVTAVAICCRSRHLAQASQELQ
human PCSK9, sequence (Q8NBP7 31-152 partner limits assumed): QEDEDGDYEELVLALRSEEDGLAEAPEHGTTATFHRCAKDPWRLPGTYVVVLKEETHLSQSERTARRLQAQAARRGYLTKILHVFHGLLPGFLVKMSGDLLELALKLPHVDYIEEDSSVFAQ

SMILES	Max % inhibition	IC50
COC[C@@H]1NC(=O)[C@H](C)N(Cc2cccnc2Oc2ccc(-c3cnc(CN(C)C)n3C)cc2)C(=O)C[C@@H](Cc2ccccc2)C(=O)N(C)[C@@H](C)CNC(=O)C[C@H](Cc2ccc(Cl)cc2)N(C)C1=O [Compound 210, (2S,5S,8S,13S,16R)-16-benzyl-8-(4-chlorobenzyl)-1-((2-(4-(2-((dimethylamino)methyl)-1-methyl-1H-imidazol-5-yl)phenoxy)pyridin-3-yl)methyl)-5-(methoxymethyl)-2,7,13,14-tetramethyl-1,4,7,11,14-pentaazacyclooctadecane-3,6,10,15,18-pentaone]	91.38%	14.7 nM
COC[C@@H]1NC(=O)[C@H](CCS(C)(=O)=O)N(Cc2ccc(Cl)cc2Oc2ccc(-c3cnc(CN(C)C)n3C)cc2)C(=O)C[C@@H](Cc2ccccc2)C(=O)N(C)[C@@H](C)CNC(=O)C[C@H](Cc2ccc(Cl)cc2)N(C)C1=O [Compound 211, (2S,5S,8S,13S,16R)-16-benzyl-1-(4-chloro-2-(4-(2-((dimethylamino)methyl)-1-methyl-1H-imidazol-5-yl)phenoxy)benzyl)-8-(4-chlorobenzyl)-5-(methoxymethyl)-7,13,14-trimethyl-2-(2-(methylsulfonyl)ethyl)-1,4,7,11,14-pentaazacyclooctadecane-3,6,10,15,18-pentaone]	102.01%	3.9 nM
COC[C@@H]1NC(=O)[C@H](C)N(Cc2ccc(Cl)cc2Oc2ccc(-c3cnc4c(c3)CN(C(=O)[C@@H]3CCNC3)CC4)cc2)C(=O)C[C@@H](Cc2ccccc2)C(=O)N(C)[C@@H](C)CNC(=O)C[C@H](Cc2ccc(Cl)cc2)N(C)C1=O [Compound 212, (2S,5S,8S,13S,16R)-16-benzyl-1-(4-chloro-2-(4-(6-((R)-pyrrolidine-3-carbonyl)-5,6,7,8-tetrahydro-1,6-naphthyridin-3-yl)phenoxy)benzyl)-8-(4-chlorobenzyl)-5-(methoxymethyl)-2,7,13,14-tetramethyl-1,4,7,11,14-pentaazacyclooctadecane-3,6,10,15,18-pentaone]	71.82%	5.4 nM
C[C@H]1CNC(=O)C[C@H](Cc2ccc(Cl)cc2)N(C)C(=O)[C@H](CC(=O)O)NC(=O)[C@H](C)N(Cc2ccc(Cl)cc2Oc2ccc(-c3cnc(CN(C)C)n3C)cc2)C(=O)C[C@@H](Cc2ccccc2)C(=O)N1C [Compound 213, 2-((2S,5S,8S,13S,16R)-16-benzyl-1-(4-chloro-2-(4-(2-((dimethylamino)methyl)-1-methyl-1H-imidazol-5-yl)phenoxy)benzyl)-8-(4-chlorobenzyl)-2,7,13,14-tetramethyl-3,6,10,15,18-pentaoxo-1,4,7,11,14-pentaazacyclooctadecan-5-yl)acetic acid]	91.51%	3.5 nM
COC[C@@H]1NC(=O)[C@H](C)N(Cc2ncccc2Oc2ccc(-c3cnc(CN(C)C)n3C)cc2)C(=O)C[C@@H](Cc2ccccc2)C(=O)N(C)[C@@H](C)CNC(=O)C[C@H](Cc2ccc(Cl)cc2)N(C)C1=O [Compound 214, (2S,5S,8S,13S,16R)-16-benzyl-8-(4-chlorobenzyl)-1-((3-(4-(2-((dimethylamino)methyl)-1-methyl-1H-imidazol-5-yl)phenoxy)pyridin-2-yl)methyl)-5-(methoxymethyl)-2,7,13,14-tetramethyl-1,4,7,11,14-pentaazacyclooctadecane-3,6,10,15,18-pentaone]	97.43%	33.2 nM
COC[C@@H]1NC(=O)[C@H](C)N(Cc2ccc(Cl)cc2Oc2ccc(-c3cnc(CN(C)C)n3C)cc2)C(=O)C[C@@H](C2CC2)C(=O)N(C)[C@@H](C)CNC(=O)C[C@H](Cc2ccc(Cl)cc2)N(C)C1=O [Compound 215, (2S,5S,8S,13S)-1-(4-chloro-2-(4-(2-((dimethylamino)methyl)-1-methyl-1H-imidazol-5-yl)phenoxy)benzyl)-8-(4-chlorobenzyl)-16-cyclopropyl-5-(methoxymethyl)-2,7,13,14-tetramethyl-1,4,7,11,14-pentaazacyclooctadecane-3,6,10,15,18-pentaone]	95.08%	11 nM
COC[C@@H]1NC(=O)[C@H](C)N(Cc2ccc(Cl)cc2Oc2ccc(-c3cnc(CN4CCCC4)n3C)cc2)C(=O)C[C@@H](Cc2ccccc2)C(=O)N(C)[C@@H](CCCCNC(C)=O)CNC(=O)C[C@H](Cc2ccc(Cl)cc2)N(C)C1=O.O=C(O)C(F)(F)F [Compound 217, N-(4-((2S,5S,8S,13S,16R)-16-benzyl-1-(4-chloro-2-(4-(1-methyl-2-(pyrrolidin-1-ylmethyl)-1H-imidazol-5-yl)phenoxy)benzyl)-8-(4-chlorobenzyl)-5-(methoxymethyl)-2,7,14-trimethyl-3,6,10,15,18-pentaoxo-1,4,7,11,14-pentaazacyclooctadecan-13-yl)butyl)acetamide trifluoroacetate]	95.74%	0.7 nM
COC[C@@H]1NC(=O)[C@H](C)N(Cc2ccc(Cl)cc2Oc2ccc(-c3cnc(CN(C)C)n3C)cc2)C(=O)C[C@@H](Cc2ccccc2)C(=O)N(C)[C@@H]2CCOC[C@H]2NC(=O)C[C@H](Cc2ccc(Cl)cc2)N(C)C1=O [Compound 224, (4S,7S,10S,14R,16aR,20aS)-14-benzyl-11-(4-chloro-2-(4-(2-((dimethylamino)methyl)-1-methyl-1H-imidazol-5-yl)phenoxy)benzyl)-4-(4-chlorobenzyl)-7-(methoxymethyl)-5,10,16-trimethyltetradecahydro-1H-pyrano[3,4-l][1,4,7,11,14]pentaazacyclooctadecine-2,6,9,12,15(3H)-pentaone]	95.15%	650 nM
COC[C@@H]1NC(=O)[C@H](CCCCN(C)C)N(Cc2ccc(Cl)cc2Oc2ccc(-c3cnc(CN(C)C)n3C)cc2)C(=O)C[C@@H](Cc2ccccc2)C(=O)N(C)[C@@H](C)CNC(=O)C[C@H](Cc2ccc(Cl)cc2)N(C)C1=O [Compound 225, (2S,5S,8S,13S,16R)-16-benzyl-1-(4-chloro-2-(4-(2-((dimethylamino)methyl)-1-methyl-1H-imidazol-5-yl)phenoxy)benzyl)-8-(4-chlorobenzyl)-2-(4-(dimethylamino)butyl)-5-(methoxymethyl)-7,13,14-trimethyl-1,4,7,11,14-pentaazacyclooctadecane-3,6,10,15,18-pentaone]	98.86%	8 nM

Further compounds by falling IC50, results first:

Max % inhibition	IC50	SMILES
94.82%	2.1 nM	COC[C@@H]1NC(=O)[C@H](C)N(Cc2ccc(Cl)cc2Oc2ccc(-c3cnc(CN4CC[C@H](O)C4)n3C)cc2)C(=O)C[C@@H](Cc2ccccc2)C(=O)N(C)[C@@H](C)CNC(=O)C[C@H](Cc2ccc(Cl)cc2)N(C)C1=O [Compound 220, (2S,5S,8S,13S,16R)-16-benzyl-1-(4-chloro-2-(4-(2-(((S)-3-hydroxypyrrolidin-1-yl)methyl)-1-methyl-1H-imidazol-5-yl)phenoxy)benzyl)-8-(4-chlorobenzyl)-5-(methoxymethyl)-2,7,13,14-tetramethyl-1,4,7,11,14-pentaazacyclooctadecane-3,6,10,15,18-pentaone]
100.16%	1.8 nM	CCc1ccc(CN2C(=O)C[C@@H](Cc3ccccc3)C(=O)N(C)[C@H]3CCCC[C@@H]3NC(=O)C[C@H](Cc3ccc(Cl)cc3)N(C)C(=O)[C@H](COC)NC(=O)[C@@H]2C)c(Oc2ccc(-c3cnc(CN4CCCC4)n3C)cc2)c1 [Compound 223, (4S,7S,10S,14R,16aS,20aS)-14-benzyl-4-(4-chlorobenzyl)-11-(4-ethyl-2-(4-(1-methyl-2-(pyrrolidin-1-ylmethyl)-1H-imidazol-5-yl)phenoxy)benzyl)-7-(methoxymethyl)-5,10,16-trimethylhexadecahydrobenzo[l][1,4,7,11,14]pentaazacyclooctadecine-2,6,9,12,15(3H)-pentaone]
98.35%	1.4 nM	CNC(=O)C[C@@H]1NC(=O)[C@H](C)N(Cc2ccc(Cl)cc2Oc2ccc(-c3cnc(CN(C)C)n3C)cc2)C(=O)C[C@@H](Cc2ccccc2)C(=O)N(C)[C@@H](C)CNC(=O)C[C@H](Cc2ccc(Cl)cc2)N(C)C1=O [Compound 221, 2-((2S,5S,8S,13S,16R)-16-benzyl-1-(4-chloro-2-(4-(2-((dimethylamino)methyl)-1-methyl-1H-imidazol-5-yl)phenoxy)benzyl)-8-(4-chlorobenzyl)-2,7,13,14-tetramethyl-3,6,10,15,18-pentaoxo-1,4,7,11,14-pentaazacyclooctadecan-5-yl)-N-methylacetamide]
105.97%	1 nM	COCCN(CCOC)C(=O)C[C@H]1C(=O)N[C@@H](COC)C(=O)N(C)[C@@H](Cc2ccc(Cl)cc2)CC(=O)N[C@H]2CCCC[C@@H]2N(C)C(=O)[C@H](Cc2ccccc2)CC(=O)N1Cc1ccc(Cl)cc1Oc1ccc(-c2cnc(CN(C)C)n2C)cc1 [Compound 218, 2-((4S,7S,10S,14R,16aS,20aS)-14-benzyl-11-(4-chloro-2-(4-(2-((dimethylamino)methyl)-1-methyl-1H-imidazol-5-yl)phenoxy)benzyl)-4-(4-chlorobenzyl)-7-(methoxymethyl)-5,16-dimethyl-2,6,9,12,15-pentaoxodocosahydrobenzo[l][1,4,7,11,14]pentaazacyclooctadecin-10-yl)-N ,N-bis(2-methoxyethyl)acetamide]
105.15%	0.9 nM	COC[C@@H]1NC(=O)[C@H](CC(=O)O)N(Cc2ccc(Cl)cc2Oc2ccc(-c3cnc(CN(C)C)n3C)cc2)C(=O)C[C@@H](Cc2ccccc2)C(=O)N(C)[C@H]2CCCC[C@@H]2NC(=O)C[C@H](Cc2ccc(Cl)cc2)N(C)C1=O [Compound 219, 2-((4S,7S,10S,14R,16aS,20aS)-14-benzyl-11-(4-chloro-2-(4-(2-((dimethylamino)methyl)-1-methyl-1H-imidazol-5-yl)phenoxy)benzyl)-4-(4-chlorobenzyl)-7-(methoxymethyl)-5,16-dimethyl-2,6,9,12,15-pentaoxodocosahydrobenzo[l][1,4,7,11,14]pentaazacyclooctadecin-10-yl)acetic acid]
